ChEMBL document CHEMBL1128140, “Novel indolocarbazole protein kinase c inhibitors with improved biochemical and physicochemical properties” (Bioorg Med Chem Lett, 1995)

Legend:
Protein kinase C (PKC) = assay: Tested for inhibition of protein kinase C from rat brain
[1] = biological target: T1, cGMP-dependent protein kinase 1 (Bos taurus, UniProt P00516); assay: Tested for inhibition of cGMP-dependent protein kinase from bovine lung
T1 sequence (P00516 whole entry): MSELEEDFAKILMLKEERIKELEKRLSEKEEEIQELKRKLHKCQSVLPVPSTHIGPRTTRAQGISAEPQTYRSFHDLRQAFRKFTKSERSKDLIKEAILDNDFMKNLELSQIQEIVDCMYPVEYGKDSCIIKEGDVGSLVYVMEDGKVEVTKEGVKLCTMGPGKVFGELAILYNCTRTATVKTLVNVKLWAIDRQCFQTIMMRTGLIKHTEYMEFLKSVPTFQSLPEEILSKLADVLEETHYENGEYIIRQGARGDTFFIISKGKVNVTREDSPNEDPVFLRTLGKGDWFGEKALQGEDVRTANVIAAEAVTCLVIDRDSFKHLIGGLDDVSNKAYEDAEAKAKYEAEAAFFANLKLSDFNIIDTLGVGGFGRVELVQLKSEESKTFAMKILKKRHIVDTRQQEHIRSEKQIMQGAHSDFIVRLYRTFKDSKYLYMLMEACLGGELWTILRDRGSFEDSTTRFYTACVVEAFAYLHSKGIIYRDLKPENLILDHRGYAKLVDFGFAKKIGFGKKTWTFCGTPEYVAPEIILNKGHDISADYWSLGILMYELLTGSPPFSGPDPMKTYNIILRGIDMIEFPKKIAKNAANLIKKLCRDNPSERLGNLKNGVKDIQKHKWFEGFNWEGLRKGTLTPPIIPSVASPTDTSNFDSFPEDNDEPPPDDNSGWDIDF

[2] = Tested for inhibition of catalytic subunit of cAMP-dependent protein kinase from bovine heart
[3] = biological target: Tyrosine-protein kinase Blk (Mus musculus, UniProt P16277); assay: Tested for inhibition of general tyrosine-specific protein kinase activity from murine B cell lysate; type: cell-based
Sequence of Tyrosine-protein kinase Blk (P16277 whole entry): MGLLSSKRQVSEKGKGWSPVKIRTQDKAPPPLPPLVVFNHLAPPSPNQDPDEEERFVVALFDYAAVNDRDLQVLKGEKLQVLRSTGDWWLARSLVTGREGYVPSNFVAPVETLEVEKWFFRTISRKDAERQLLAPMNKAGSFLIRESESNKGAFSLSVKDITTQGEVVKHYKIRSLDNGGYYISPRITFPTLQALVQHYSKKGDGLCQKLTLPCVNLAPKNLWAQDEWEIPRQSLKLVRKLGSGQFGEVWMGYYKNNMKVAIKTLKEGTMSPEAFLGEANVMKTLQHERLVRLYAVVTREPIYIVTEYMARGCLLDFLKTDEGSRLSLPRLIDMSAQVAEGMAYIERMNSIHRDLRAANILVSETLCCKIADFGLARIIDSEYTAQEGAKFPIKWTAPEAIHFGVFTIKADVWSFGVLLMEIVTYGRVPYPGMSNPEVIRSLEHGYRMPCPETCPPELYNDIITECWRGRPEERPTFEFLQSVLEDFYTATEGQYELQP

For CN(C)CCCn1c2ccccc2c2c3c(c4c5ccccc5[nH]c4c21)C(=O)NC3, the IC50 (Protein kinase C (PKC)) was 230 nM, the IC50 [1] was 420 nM and the IC50 [2] was greater than 10000 nM.

In the case of Cn1c2ccccc2c2c3c(c4c5ccccc5n(CCCN)c4c21)CNC3=O, the IC50 (Protein kinase C (PKC)) is reported as 32 nM, the IC50 [1] is reported as 220 nM and the IC50 [2] is reported as 750 nM.

In the case of CN(C)CC(O)Cn1c2ccccc2c2c3c(c4c5ccccc5n(C)c4c21)C(=O)NC3=O (centres undefined), the IC50 (Protein kinase C (PKC)) is reported as 21 nM, the IC50 [1] is reported as 2100 nM and the IC50 [2] is reported as 6300 nM.

For COc1ccc2c(c1)c1c3c(c4c5ccccc5n(C)c4c1n2CCCC#N)C(=O)NC3=O, the IC50 (Protein kinase C (PKC)) was 5 nM, the IC50 [1] was 1000 nM and the IC50 [2] was 200 nM.

For CN(C)CCCn1c2ccc(O)cc2c2c3c(c4c5cc(O)ccc5[nH]c4c21)C(=O)NC3, the IC50 (Protein kinase C (PKC)) was 16 nM.

For COc1ccc2c(c1)c1c3c(c4c5ccccc5n(C)c4c1n2CC(O)CN(C)C)C(=O)NC3=O (centres undefined), the IC50 (Protein kinase C (PKC)) was 4 nM, the IC50 [1] was 4800 nM and the IC50 [2] was 510 nM.

With CN(C)CCCn1c2ccccc2c2c3c(c4c5ccccc5n(C)c4c21)C(=O)NC3 the IC50 (Protein kinase C (PKC)) was 45 nM, the IC50 [1] was 870 nM and the IC50 [2] was 9900 nM.

Work on COc1ccc2[nH]c3c(c4c(c5c6cc(OC)ccc6n(CCCN(C)C)c35)CNC4=O)c2c1 yielded an IC50 (Protein kinase C (PKC)) of 550 nM.

In the case of COc1ccc2c(c1)c1c3c(c4c5ccccc5n(C)c4c1n2CCC#N)C(=O)NC3=O, the IC50 (Protein kinase C (PKC)) is reported as 2 nM, the IC50 [1] is reported as greater than 3000 nM and the IC50 [2] is reported as 400 nM. For the same compound, the IC50 [3] was greater than 10000 nM.

For COc1ccc2c(c1)c1c3c(c4c5ccccc5n(C)c4c1n2CC(O)CN(C)C)C(=O)NC3 (centres undefined), the IC50 (Protein kinase C (PKC)) was 86 nM, the IC50 [1] was 23000 nM and the IC50 [2] was 15000 nM. The IC50 [3] was greater than 10000 nM.

For CN(C)CC(O)Cn1c2ccccc2c2c3c(c4c5ccccc5n(C)c4c21)C(=O)NC3 (centres undefined), the IC50 (Protein kinase C (PKC)) was 30 nM, the IC50 [1] was 9400 nM and the IC50 [2] was 24000 nM. The IC50 [3] was greater than 100000 nM.

In the case of COc1ccc2c(c1)c1c3c(c4c5cc(OC)ccc5n(CCC#N)c4c1n2C)CNC3=O, the IC50 (Protein kinase C (PKC)) is reported as 56 nM, the IC50 [1] is reported as 2000 nM and the IC50 [2] is reported as 45000 nM. It also gave an IC50 [3] greater than 10000 nM.

For COc1ccc2c(c1)c1c3c(c4c5ccccc5n(CCC#N)c4c1n2C)C(=O)NC3=O, the IC50 (Protein kinase C (PKC)) was 16 nM.

Cn1c2ccccc2c2c3c(c4c5ccccc5n(CCC#N)c4c21)C(=O)NC3=O gave an IC50 (Protein kinase C (PKC)) of 38 nM, an IC50 [1] of 7200 nM and an IC50 [2] greater than 30000 nM.

For Cn1c2ccc(O)cc2c2c3c(c4c5cc(O)ccc5n(CCC#N)c4c21)CNC3=O, the IC50 (Protein kinase C (PKC)) was 9 nM.

COc1ccc2c(c1)c1c3c(c4c5cc(OC)ccc5n(CCC#N)c4c1n2C)C(=O)NC3=O gave an IC50 (Protein kinase C (PKC)) of 6 nM.

In the case of Cn1c2ccccc2c2c3c(c4c5ccccc5n(CCC#N)c4c21)CNC3=O [GO-6976], the IC50 (Protein kinase C (PKC); read-out: IC50) is reported as 20 nM and the IC50 [2] is reported as greater than 100000 nM.
